The values below come from patent publication US8377909B2, “Use of phytate as agent inhibiting dissolution of crystals of calcium salts for the prevention of osteoporosis” (Universitat de les Illes Balears, priority 2006, dated 2013).

Data set [1] is described as follows: Dissolution of hydroxyapatite in the presence of phytate at pH 5. Format: physicochemical. The settings on record: 12 and 24 uM phytate present in pH 5 stage; over 24 hours; FIG. 2. Here is the method:
FIG. 2 is a graph showing the quantity of calcium dissolved on treating hydroxyapatite for a period of 24 hours in the presence of various concentrations of phytate at pH5.
(§1) A homogenous suspension of crystalline calcium phosphate in the form of hydroxyapatite in TRIS buffer at pH 7.4 was prepared. This suspension was stirred for 8 hours. Then the crystals obtained were filtered and dried to constant weight. Then these crystals were resuspended at pH 5.0 (in acetate buffer) and the kinetics of dissolution of the salt was determined over 24 hours, continuously stirring the system. The kinetics were followed by determining the quantity of dissolved calcium and phosphorus by atomic emission spectroscopy (using inductively coupled plasma).
This experiment was repeated using concentrations of 12 and 24 uM of phytate in the pH 5 stage with the aim of studying the inhibitory effect of dissolution by phytate present in the solution.

Data set [2] can be described thus: Adsorption of phytate on hydroxyapatite crystals. Format: physicochemical. The following applies: TRIS buffer pH 7.4, stirred 8 hours. Here is the method:
Three homogenous suspensions of crystallised calcium phosphate in the form of hydroxyapatite in TRIS buffer at pH 7.4 were prepared. These suspensions were stirred for 8 hours in the presence of 1, 3 and 12 uM of phytate, respectively. Later, the suspensions were filtered and the amount of phytate adsorbed on the hydroxyapatite crystals was determined by difference between the initial and final phytate in the solution at pH 7.4.

Data set [3] is described as follows: Dissolution of hydroxyapatite previously treated with phytate at pH 7.4. Format: physicochemical. The following applies: 1, 6 and 12 uM phytate fixed at pH 7.4 stage; dissolution at pH 5.0 acetate buffer over 24 hours; FIG. 1. Here is the method: FIG. 1 is a graph showing the quantity of calcium dissolved on treating hydroxyapatite, which has been previously treated with various concentrations of phytate at pH 7.4, for a period of 24 hours.
as §1
This experiment was repeated using concentrations of 1, 6 and 12 uM of phytate during the stage at pH 7.4 with the aim of fixing this compound on the hydroxyapatite structure.

A short description of data set [4]: Effect of phytate consumption on bone mass, axial densitometry. Format: in vivo. The following applies: overall conclusion of the densitometry study. As for the experimental part: A study was carried out evaluating the effect of phytate consumption on the level of bone mass measured by axial densitometry and peripheral heel densitometry. In total, 433 axial densitometer measurements and 1473 peripheral heel densitometer measurements were made. The consumption of phytate by all subjects was evaluated by using a dietetic questionnaire. Subjects were classified into 4 groups (group 1, group 2, group 3 and group 4) according to increasing levels of phytate consumption.

On to `O=P(O)(O)O[C@H]1[C@H](OP(=O)(O)O)[C@@H](OP(=O)(O)O)[C@H](OP(=O)(O)O)[C@@H](OP(=O)(O)O)[C@H]1OP(=O)(O)O` [phytate, myo-inositol hexaphosphate], for which the “inhibition of dissolution of hydroxyapatite (dissolved calcium)” value in data set [1] and in data set [3] was “capable of inhibiting the dissolution of the salt” throughout. The “phytate present in the solution remained fixed to the calcium phosphate structure (hydroxyapatite)” value was 62% in data set [2] (1 uM phytate), 66% in data set [2] (3 uM phytate) and 56% in data set [2] (12 uM phytate). In addition, the “effect of consumption of a diet rich in phytate on bone mass” value in data set [4] is “higher bone mass”.
